Reference: patent US7807676B2, “Diketo-Piperazine and Piperidine derivatives as antiviral agents” (priority 2006, dated 2010)
Counter-ions that a name gives are not always drawn.

The molecules below were run on HIV-1 single-round infectious reporter virus (assay: Single-round infectious HIV-1 luciferase reporter virus infection of HeLa CD4 cells (antiviral EC50)). Details: Human immunodeficiency virus 1, HeLa, read-out: EC50 Group from Table 3.
Assay type: cell-based
Description: • Virus production—Human embryonic Kidney cell line, 293T, was propagated in Dulbecco's Modified Eagle Medium (Invitrogen, Carlsbad, Calif.) containing 10% fetal Bovine serum (FBS, Sigma, St. Louis, Mo.). • Virus infection—Human epithelial cell line, HeLa, expressing the HIV-1 receptor CD4 was propagated in Dulbecco's Modified Eagle Medium (Invitrogen, Carlsbad, Calif.) containing 10% fetal Bovine serum (FBS, Sigma, St. Louis, Mo.) and supplemented with 0.2 mg/mL Geneticin (Invitrogen, Carlsbad, Calif.). Virus-Single-round infectious reporter virus was produced by co-transfecting human embryonic Kidney 293 cells with an HIV-1 envelope DNA expression vector and a proviral cDNA containing an envelope deletion mutation and the luciferase reporter gene inserted in place of HIV-1 nef sequences (Chen et al, Ref. 41). Transfections were performed using lipofectAMINE PLUS reagent as described by the manufacturer (Invitrogen, Carlsbad, Calif.). Experiment • 1. HeLa CD4 cells were plated in 96 well plates at a cell density of 1×10^4 cells per well in 100 μl Dulbecco's Modified Eagle Medium containing 10% fetal Bovine serum and incubated overnight. • 2. Compound was added in a 2 μl dimethylsulfoxide solution, so that the final assay concentration would be ≦10 μM. • 3. 100 μl of single-round infectious reporter virus in Dulbecco's Modified Eagle Medium was then added to the plated cells and compound at an approximate multiplicity of infection (MOI) of 0.01, resulting in a final volume of 200 μl per well. • 4. Virally-infected cells were incubated at 37 degrees Celsius, in a CO2 incubator, and harvested 72 h after infection. • 5. Viral infection was monitored by measuring luciferase expression from viral DNA in the infected cells using a luciferase reporter gene assay kit, as described by the manufacturer (Roche Molecular Biochemicals, Indianapolis, Ind.). Infected cell supernatants were removed and 50 μl of lysis buffer was added per well. After 15 minutes, 50 μl of freshly-reconstituted luciferase assay reagent was added per well. Luciferase activity was then quantified by measuring luminescence using a Wallac microbeta scintillation counter. • 6. The percent inhibition for each compound was calculated by quantifying the level of luciferase expression in cells infected in the presence of each compound as a percentage of that observed for cells infected in the absence of compound and subtracting such a determined value from 100. • 7. An EC50 provides a method for comparing the antiviral potency of the compounds of this disclosure. The effective concentration for fifty percent inhibition (EC50) was calculated with the Microsoft Excel Xlfit curve fitting software. For each compound, curves were generated from percent inhibition calculated at 10 different concentrations by using a four parameter logistic model (model 205). Table 3 is the key for the data in Table 4. Results

Compound | EC50 [nM]
CN(C)CCn1cc(N2CCN(C(=O)C(=O)c3c[nH]c4c(-n5ccnn5)ncc(F)c34)CC2)c(-c2ccccc2)n1 [G-6b] | < 500
CCOC(=O)N1CCN(c2ccc(-c3ncc(OC)c4c(C(=O)C(=O)N5CCN(c6nnnn6-c6ccccn6)CC5)c[nH]c34)cc2)CC1 [B-85] | < 500
O=C(C(=O)N1CCN(c2nc(-c3ccccc3)ns2)CC1)c1c[nH]c2c(-n3ccnn3)ncc(F)c12 [A-28] | < 500
CCOc1nccnc1N1CCN(C(=O)C(=O)c2c[nH]c3c(-n4cnc(C)n4)ncc(OC)c23)CC1 [D-17] | < 500
COc1cnc(-n2cnc(C)n2)c2[nH]cc(C(=O)C(=O)N3CCN(c4nnnn4-c4cccnn4)CC3)c12 [E-12d] | < 500
O=C(C(=O)N1CCN(c2cnnn2-c2ccccc2)CC1)c1c[nH]c2c(-n3ccnn3)ncc(F)c12 [G-30a] | < 500
O=C(C(=O)N1CCN(c2ccccc2C2CCCCC2)CC1)c1c[nH]c2c(-n3ccnn3)ncc(F)c12 [A-42] | > 500
CNC(=O)Cn1ccc(-c2ncc(OC)c3c(C(=O)C(=O)N4CCN(c5nnnn5-c5ccccn5)CC4)c[nH]c23)n1 [B-77] | < 500
O=C(C(=O)N1CCN(c2nnnn2-c2ccccc2)CC1)c1c[nH]c2c(-c3cc(C(=O)N4CCC(O)CC4)[nH]n3)ncc(F)c12 [F-16] | < 500
COc1cnc(-n2cnc(C)n2)c2[nH]cc(C(=O)C(=O)N3CCN(c4nnnn4-c4ccccc4)C[C@H]3C)c12 [A-30] | < 500
COc1cnc(-c2ccc(N3CCNCC3)cc2)c2[nH]cc(C(=O)C(=O)N3CCN(c4nnnn4-c4ccccn4)CC3)c12 [B-82] | < 500
O=C(C(=O)N1CCN(c2nnnn2-c2ccccn2)CC1)c1c[nH]c2c(-n3ccnn3)ncc(F)c12 [E-1, 1-(4-fluoro-7-(1H-1,2,3-triazol-1-yl)-1H-pyrrolo[2,3-c]pyridinyl-3-yl)-2-(4-(1-(pyridin-2-yl)-1H-tetrazol-5-yl)piperazin-1-yl)ethane-1,2-dione] | < 500
COc1cnc(-c2cnccn2)c2[nH]cc(C(=O)C(=O)N3CCN(c4nncn4-c4ccccc4)CC3)c12 [A-57] | < 500
O=C(C(=O)N1CCN(c2nsnc2-c2ccccc2)CC1)c1c[nH]c2c(-n3ccnn3)ncc(F)c12 [A-13] | < 500
COc1cnc(-c2cc(CNCCc3ccncc3)[nH]n2)c2[nH]cc(C(=O)C(=O)N3CCN(c4nnnn4-c4ccccc4)CC3)c12 [B-27, 1-(4-methoxy-7-(5-((2-(pyridin-4-yl)ethylamino)methyl)-1H-pyrazol-3-yl)-1H-pyrrolo[2,3-c]pyridin-3-yl)-2-(4-(1-phenyl-1H-tetrazol-5-yl)piperazin-1-yl)ethane-1,2-dione TFA] | < 500
COc1cnc(-n2cnc(C)n2)c2[nH]cc(C(=O)C(=O)N3CCN(c4ncccc4C(=O)Nc4ccccc4)CC3)c12 [D-22] | > 500
O=C(C(=O)N1CCN(c2cnnn2-c2ccccn2)CC1)c1c[nH]c2c(-n3ccnn3)ncc(F)c12 [G-22a] | < 500
COc1cnc(-n2cnc(C)n2)c2[nH]cc(C(=O)C(=O)N3CCN(c4nn(C)c(=O)cc4-c4ccccc4)C[C@H]3C)c12 [D-50] | > 500
Cc1ccnn1-c1ncc(F)c2c(C(=O)C(=O)N3CCN(c4nnnn4-c4ccccc4)CC3)c[nH]c12 [B-3, 1-(4-fluoro-7-(5-methyl-1H-pyrazol-1-yl)-1H-pyrrolo[2,3-c]pyridin-3-yl)-2-(4-(1-phenyl-1H-tetrazol-5-yl)piperazin-1-yl)ethane-1,2-dione] | < 500
COc1cnc(-n2cnc(C)n2)c2[nH]cc(C(=O)C(=O)N3CCN(c4ncnn4-c4ccccc4)CC3)c12 [G-27b] | < 500
O=C(C(=O)N1CCN(c2cncnc2-c2ccccc2)CC1)c1c[nH]c2c(-n3ccnn3)ncc(F)c12 [G-19a] | < 500
CCOC(=O)CCCCCCC(=O)c1cccnc1N1CCN(C(=O)C(=O)c2c[nH]c3c(-n4ccnn4)ncc(F)c23)CC1 [D-44] | > 500

Compound | EC50 [nM]
COc1cnc(-n2cnc(C)n2)c2[nH]cc(C(=O)C(=O)N3CCN(c4ccnn4-c4ccccc4)CC3)c12 [G-9a] | < 500
COc1cnc(-n2cnc(C)n2)c2[nH]cc(C(=O)C(=O)N3CCN(c4ncccc4-c4nc5ccccc5s4)CC3)c12 [D-15] | < 500
CC(C)Oc1nccnc1N1CCN(C(=O)C(=O)c2c[nH]c3c(-n4ccnn4)ncc(F)c23)CC1 [D-35] | < 500
COc1cnc(-n2cnc(C)n2)c2[nH]cc(C(=O)C(=O)N3CCN(c4nc5ccccc5nc4-n4nc(C)cc4C)CC3)c12 [D-9] | > 500
COc1cnc(-n2cc(Cl)cn2)c2[nH]cc(C(=O)C(=O)N3CCN(c4nnnn4-c4ccccn4)CC3)c12 [B-79] | < 500
COc1cnc(-n2cnc(C)n2)c2[nH]cc(C(=O)C(=O)N3CCN(C4=NCCN4c4ccccc4)CC3)c12 [G-12b] | < 500
O=C(O)c1cc(-c2ncc(F)c3c(C(=O)C(=O)N4CCN(c5nnnn5-c5ccccc5)CC4)c[nH]c23)n[nH]1 [B-34] | < 500
COc1cnc(Br)c2[nH]cc(C(=O)C(=O)N3CCN(c4nncn4-c4ccccc4)CC3)c12 [A-53] | < 500
COc1cnc(-c2cc(C(=O)O)[nH]n2)c2[nH]cc(C(=O)C(=O)N3CCN(c4nnnn4-c4ccccc4)CC3)c12 [B-21, 3-(4-methoxy-3-(2-oxo-2-(4-(1-phenyl-1H-tetrazol-5-yl)piperazin-1-yl)acetyl)-1H-pyrrolo[2,3-c]pyridin-7-yl)-1H-pyrazole-5-carboxylic acid] | < 500
O=C(C(=O)N1CCN(C2=NS(=O)(=O)N=C2c2ccccc2)CC1)c1c[nH]c2c(-n3ccnn3)ncc(F)c12 [A-55] | < 500
COc1cnc(-c2cc(CO)[nH]n2)c2[nH]cc(C(=O)C(=O)N3CCN(c4nnnn4-c4ccccn4)CC3)c12 [B-67] | < 500
O=C(C(=O)N1CCC(C2=NCCN2c2ccccc2)CC1)c1c[nH]c2c(-n3ccnn3)ncc(F)c12 [G-17a] | > 500
O=C(C(=O)N1CCN(c2nncn2-c2ccccc2)CC1)c1c[nH]c2c(-n3ccnn3)ncc(O)c12 [A-43] | < 500
COc1cnc(-n2cnc(C)n2)c2[nH]cc(C(=O)C(=O)N3CCN(c4nnnn4-c4ccccc4)[C@@H](C)C3)c12 [A-60] | < 500
COc1cnc(-n2ccnn2)c2[nH]cc(C(=O)C(=O)N3CCN(c4nnnn4-c4ccccn4)CC3)c12 [A-59] | < 500
CC(=O)Nc1ncc(F)c2c(C(=O)C(=O)N3CCN(c4nnnn4-c4ccccc4)CC3)c[nH]c12 [B-18, N-(4-fluoro-3-(2-oxo-2-(4-(1-phenyl-1H-tetrazol-5-yl)piperazin-1-yl)acetyl)-1H-pyrrolo[2,3-c]pyridin-7-yl)acetamide] | > 500
O=C(C(=O)N1CCC(c2nc3ccccc3n2-c2ccccc2)CC1)c1c[nH]c2c(-n3ccnn3)ncc(F)c12 [A-16] | < 500
COc1cnc(-n2cnc(C)n2)c2[nH]cc(C(=O)C(=O)N3CCN(c4nc(N(C)C)nn4-c4ccccc4)CC3)c12 [G-4b] | < 500
O=C(c1nccs1)c1cccnc1N1CCN(C(=O)C(=O)c2c[nH]c3c(-n4ccnn4)ncc(F)c23)CC1 [D-33] | < 500
COc1cnc(-n2cnc(C)n2)c2[nH]cc(C(=O)C(=O)N3CCN(c4nnnn4-c4ncco4)CC3)c12 [E-7] | < 500
COCCN1CCN(C(=O)c2cc(-c3ncc(F)c4c(C(=O)C(=O)N5CCN(c6nnnn6-c6ccccc6)CC5)c[nH]c34)n[nH]2)CC1 [F-15] | < 500
C[C@@H]1CN(c2ncccc2C(=O)N2CCOCC2)CCN1C(=O)C(=O)c1c[nH]c2c(-n3ccnn3)ncc(F)c12 [D-29] | > 500
